Columns and labels:
Type in all cases: in vivo, human
[1] = system: serum parathyroid hormone (PTH) levels; test: Phase 3 placebo-controlled TIW study, iPTH reduction (Example 6)
From the text: (§1) Methodology: This was a Phase 3, prospective, randomized, placebo-controlled, double-blind, 24-week Treatment Phase, multi-center study in CKD (Stages 3 and 4) subjects with elevated PTH levels (≧150 pg/mL). Subjects were randomized in an equal ratio (1:1) to 1 of 2 treatment groups: Paricalcitol Capsule (Group 1) and placebo (Group 2). Potential subjects underwent procedures to determine their baseline intact PTH (iPTH), calcium, and phosphorus levels for eligibility to receive treatment.
(§2) The study was performed in 4 parts: a Screening Visit, a Pre-Treatment Phase, a Treatment Phase, and a Follow-Up Phase. At the Screening Visit, subjects reviewed and signed the informed consent form prior to the conduct of any study-specific screening procedures. A spot urine sample was used to calculate calcium/creatinine ratio. A blood sample was drawn for iPTH, blood urea nitrogen (BUN), albumin and serum creatinine levels. […] The serum creatinine, BUN, and albumin values were used to calculate the subject's estimated glomerular filtration rate (eGFR) using a formula derived from the “Modification of Diet in Renal Disease” (MDRD) study. Subjects with a calculated eGFR of 15 to 60 mL/min were eligible to undergo Pre-Treatment Phase procedures. The Pre-Treatment Phase was 1 to 4 weeks. During this phase, subjects had 2 scheduled office visits. The office visits could have occurred at any time over a 4-week period but must have been at least 1 day apart. During these visits, subjects were to meet laboratory criteria regarding serum iPTH, calcium, and phosphorus levels. If the subject was unable to meet these criteria, he or she may have been re-screened once after 4 weeks. […] Subjects who satisfied inclusion and exclusion criteria after a minimum of 1 week in the Pre-Treatment Phase were eligible to enter the Treatment Phase. During the Treatment Phase, subjects were to self-administer study drug 3 times weekly, on Monday, Wednesday and Friday, for a total of 24 weeks. The initial dose was 2 or 4 mcg (depending on baseline iPTH levels). Procedures to be performed during the Treatment Phase included vital signs, chemistry and hematology, urinary pyridinoline, urinary deoxypyridinoline, serum bone-specific alkaline phosphatase, serum osteocalcin, urinalysis, spot urine for calcium/creatinine ratio, and recording of adverse events and concurrent medications. Serum iPTH, calcium, phosphorus, and albumin were measured every 2 weeks. Dose adjustments were to be made according to these chemistry results for iPTH, calcium, and phosphorus. Doses may have been increased in 2 mcg increments every 4 weeks. Dose reductions were to occur according to a protocol-specified algorithm. However, dosing could have been adjusted any time if, in the judgment of the Investigator, a risk to subject safety existed.
(§3) Efficacy: The primary efficacy endpoint was the achievement of 2 consecutive >30% decreases from baseline iPTH levels.
(§4) The secondary efficacy analyses include change and percent change from baseline analyses in iPTH and change from baseline analyses in biochemical bone activity markers.
(§5) The Intent-To-Treat population (Full Analysis Set) was defined as all randomized subjects with a baseline iPTH and at least 2 on-treatment iPTH measurements. This population was used in the primary efficacy analysis.

[2] = system: biochemical bone activity markers; test: Phase 3 TIW study, biochemical bone activity markers (Table C); conditions: CKD Stage 3 and 4, TIW treated subjects (Table C)
From the text: Serum bone-specific alkaline phosphate and serum osteocalcin are considered more sensitive bone markers to evaluate degree of bone remodeling than urinary bone marker. […] These subjects received treatment with the oral formulations of the present invention or a placebo. The bone markers examined in these subjects were serum osteocalcin, serum bone-specific alkaline phosphatase, urinary pyridinoline, and deoxypyridinoline. If more than 1 biochemical bone activity marker measurement existed for a subject on a particular day, the higher measurement was considered to be that subject's biochemical bone activity marker measurement for that day. […] The Final Visit measurement was defined as the last biochemical bone activity marker measurement following the first dose of study drug.
The Week 11 Visit measurement was defined as the biochemical bone activity marker measurement on the day closest to the Week 11 scheduled visit, for which the possible measurements to choose from were those collected within 64 and 77 days following the first dose of study drug.
Changes from baseline to Week 11 Visit and to Final Visit in biochemical bone activity markers were compared between oral paricalcitol and placebo using an ANOVA with treatment as the factor on the combined Phase 3 all treated subject population (Table F). Also, the changes from baseline to Week 11 Visit and to Final Visit were compared between oral paricalcitol and placebo using an ANCOVA with baseline as the second factor on the combined Phase 3 all treated subject population (Table G).
as §2

[3] = system: serum parathyroid hormone (PTH) levels; test: Phase 3 placebo-controlled once daily study, iPTH reduction (Example 8)
From the text: as §1, with “capsule” for “Capsule”
During the Treatment Phase, subjects were to self-administer study drug once daily for a total of 24 weeks. The initial dose was 1 or 2 mcg (depending on baseline iPTH levels). Procedures to be performed during the Treatment Phase included vital signs, chemistry and hematology, urinary pyridinoline, urinary deoxypyridinoline, serum bone-specific alkaline phosphatase, serum osteocalcin, urinalysis, spot urine for calcium/creatinine ratio, and recording of adverse events and concurrent medications. Serum iPTH, calcium, phosphorus, and albumin were measured every 2 weeks. Dose adjustments were to be made according to these chemistry results for iPTH, calcium, and phosphorus. Doses may have been increased in 1 mcg increments every 4 weeks. Dose reductions were to occur according to a protocol-specified algorithm. However, dosing could have been adjusted any time if, in the judgment of the Investigator, a risk to subject safety existed.
as §3, §4, §5

Compound: C[C@H](/C=C/[C@H](C)C(C)(C)O)[C@H]1CC[C@H]2/C(=C/C=C3C[C@@H](O)C[C@H](O)C3)CCC[C@]12C [Paricalcitol, 19-nor-1α,3β,25-trihydroxy-9,10-secoergosta-5(Z); 7(E),22(E)-triene]
- subjects with 4 consecutive ≧30% decreases from baseline in iPTH ([1]; 26/36, exploratory analysis): 72%
- subjects with 2 consecutive >30% decreases from baseline in iPTH ([1]; 33/36, TIW, 24 weeks, CKD Stages 3 and 4): 92%
- 30% mean reduction in iPTH occurred by ([1]; TIW): ≤ 9 Week
- mean change from baseline in iPTH at the Final Visit ([1]; TIW, 24 weeks): -58.1 pg/mL
- mean change from baseline in iPTH at the Last On-Treatment Visit ([1]; TIW, 24 weeks): -95.7 pg/mL
- percent decrease in iPTH at the Final Visit ([1]; TIW, 24 weeks): 19.2%
- percent decrease in iPTH at the Last On-Treatment Visit ([1]; TIW, 24 weeks): 33.0%
- maximum decrease from baseline in iPTH ([1]; observed at Week 19): −46.0%
- Serum Bone-Specific Alkaline Phosphatase, Change from Baseline (SE) to Final [2]: −7.922 (1.3520) mcg/L
- Serum Bone-Specific Alkaline Phosphatase, Change from Baseline (SE) to Week 11 [2]: −4.673 (1.2590) mcg/L
- Serum Osteocalcin, Change from Baseline (SE) to Final [2]: −19.00 (4.381) ng/mL
- Serum Osteocalcin, Change from Baseline (SE) to Week 11 [2]: −4.23 (4.386) ng/mL
- Urinary Deoxypyridinoline, Change from Baseline (SE) to Final [2]: −0.0084 (0.00375) nmol/mg Creat
- Urinary Deoxypyridinoline, Change from Baseline (SE) to Week 11 [2]: −0.0116 (0.00354) nmol/mg Creat
- Urinary Pyridinoline, Change from Baseline (SE) to Final [2]: −4.06 (2.276) nmol/mmol Creat
- Urinary Pyridinoline, Change from Baseline (SE) to Week 11 [2]: −5.46 (2.545) nmol/mmol Creat
- subjects with 4 consecutive ≧30% decreases from baseline in iPTH ([3]; 23/33, exploratory analysis): 70%
- subjects with 2 consecutive ≧30% decreases from baseline in iPTH ([3]; 30/33, once daily, 24 weeks, CKD Stages 3 and 4): 91%
- maximum decrease from baseline in iPTH ([3]; observed at Week 23): −52.4%
- 30% mean reduction in iPTH occurred by ([3]; once daily): ≤ 7 Week
- mean change from baseline in iPTH at the Final Visit ([3]; once daily, 24 weeks): -46.9 pg/mL
- mean change from baseline in iPTH at the Last On-Treatment Visit ([3]; once daily, 24 weeks): -130.8 pg/mL
- percent decrease in iPTH at the Final Visit ([3]; once daily, 24 weeks): 15.2%
- percent decrease in iPTH at the Last On-Treatment Visit ([3]; once daily, 24 weeks): 50.0%

Source: patent US20060009425A1, “Oral formulations of paricalcitol” (priority 2004, published 2006)
